Experimental data from ChEMBL document CHEMBL1201862, “PubChem BioAssay data set” (2004).
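Dose response: 5 concentrations. Exposure: 48 h. Format: 96-well plates. Endpoint: linear interpolation; highest concentration if not reached. GI50 is the concentration that inhibits growth by half.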 Calls of active or inactive are those of the source. Cut-off read from the data, not from the text of the source: active = GI50 up to about 1.1 µM and inactive = higher.

How the values were obtained:
Test in all cases: NCI tumour cell line growth inhibition, 48 h
SK-OV-3 = system: SK-OV-3
NCI/ADR-RES = system: NCI/ADR-RES
TK-10 = system: TK-10
A549 = system: A549
SF-539 = system: SF-539
ACHN = system: ACHN
T47D = system: T47D
Malme-3M = system: Malme-3M
KM12 = system: KM12
Hs-578T = system: Hs-578T
SK-MEL-28 = system: SK-MEL-28
SNB-75 = system: SNB-75
CCRF-CEM = system: CCRF-CEM
UACC-62 = system: UACC-62
A498 = system: A498
MDA-MB-231 = system: MDA-MB-231
UACC-257 = system: UACC-257
SN12C = system: SN12C
HCT-15 = system: HCT-15

Structure (SMILES)	GI50 (SK-OV-3)	GI50 (NCI/ADR-RES)	GI50 (TK-10)	GI50 (A549)	GI50 (SF-539)	GI50 (ACHN)	GI50 (T47D)	GI50 (Malme-3M)	GI50 (KM12)	GI50 (Hs-578T)	GI50 (SK-MEL-28)	GI50 (SNB-75)	GI50 (CCRF-CEM)	GI50 (UACC-62)	GI50 (A498)	GI50 (MDA-MB-231)	GI50 (UACC-257)	GI50 (SN12C)	GI50 (HCT-15) [µM]
N#CC(C#N)=Cn1c(=S)[nH]c2ccc([N+](=O)[O-])cc21	> 100 µM (inactive)	> 100 µM (inactive)	> 100 µM (inactive)	> 100 µM (inactive)	> 100 µM (inactive)	> 100 µM (inactive)	> 100 µM (inactive)	> 100 µM (inactive)	> 100 µM (inactive)	60.8 µM (inactive)	> 100 µM (inactive)	15.2 µM (inactive)	> 100 µM (inactive)	> 100 µM (inactive)	> 100 µM (inactive)	68.7 µM (inactive)	> 100 µM (inactive)	> 100 µM (inactive)	
CC(=O)OCOC(=O)CN(CC(=O)OCOC(C)=O)Cc1cc2c(cc1OC(C)=O)Oc1cc(OC(C)=O)c(CN(CC(=O)OCOC(C)=O)CC(=O)OCOC(C)=O)cc1C21OC(=O)c2ccccc21	2.54 µM (inactive)	11 µM (inactive)	0.741 µM (active)	0.953 µM (active)	0.255 µM (active)	1.38 µM (inactive)	1.4 µM (inactive)	0.902 µM (active)		0.345 µM (active)	0.484 µM (active)	1.36 µM (inactive)	0.11 µM (active)	0.232 µM (active)	1.25 µM (inactive)	1.45 µM (inactive)	0.344 µM (active)	1.13 µM (inactive)	1.66
CCOC(=O)[C@H]1O[C@@H]1C(=O)NC(CC(C)C)C(=O)NCCC(C)C (stereo not given in full)	> 100 µM (inactive)	> 100 µM (inactive)		> 100 µM (inactive)	> 100 µM (inactive)		> 100 µM (inactive)	> 100 µM (inactive)	> 100 µM (inactive)	> 100 µM (inactive)	> 100 µM (inactive)	> 100 µM (inactive)	> 100 µM (inactive)	> 100 µM (inactive)	> 100 µM (inactive)	> 100 µM (inactive)	> 100 µM (inactive)	> 100 µM (inactive)	> 100
CCOc1ccc(Nc2nc(N)nc(N)c2N=O)cc1	> 100 µM (inactive)	47.1 µM (inactive)	34.3 µM (inactive)	> 100 µM (inactive)	80.5 µM (inactive)	42.1 µM (inactive)	19.2 µM (inactive)	49 µM (inactive)	> 100 µM (inactive)	50.9 µM (inactive)	66.5 µM (inactive)	28.1 µM (inactive)	> 100 µM (inactive)	44.1 µM (inactive)	> 100 µM (inactive)	40 µM (inactive)	54 µM (inactive)	56.6 µM (inactive)	37.7
COCCn1cnc2c(Cl)nc(Nc3ccccc3)nc21	37.2 µM (inactive)	39.2 µM (inactive)	> 100 µM (inactive)	48.8 µM (inactive)	> 100 µM (inactive)	17.9 µM (inactive)	29.8 µM (inactive)	> 10 µM (inactive)	> 100 µM (inactive)	24.1 µM (inactive)	36 µM (inactive)	68.5 µM (inactive)	19.3 µM (inactive)	25.6 µM (inactive)	59.4 µM (inactive)	27.7 µM (inactive)	36.7 µM (inactive)	26.4 µM (inactive)	22.9
CN1CCN(CCCCN2c3ccccc3Sc3ccc(C(=O)c4ccccc4)cc32)CC1	1.57 µM (inactive)	1.86 µM (inactive)	1.67 µM (inactive)	1.95 µM (inactive)	1.83 µM (inactive)	1.67 µM (inactive)	5.65 µM (inactive)	2.34 µM (inactive)	1.49 µM (inactive)	1.58 µM (inactive)	1.49 µM (inactive)	1.26 µM (inactive)	1.64 µM (inactive)	1.26 µM (inactive)	1.56 µM (inactive)	1.9 µM (inactive)	1.75 µM (inactive)	1.71 µM (inactive)	1.67
CC(C)(C)c1ccc(/C=N/NC(=O)CSCC(=O)N/N=C/c2ccc(C(C)(C)C)cc2)cc1	5.61 µM (inactive)	4.26 µM (inactive)	5.21 µM (inactive)	2.86 µM (inactive)	2.12 µM (inactive)	2.93 µM (inactive)	4.88 µM (inactive)	9.1 µM (inactive)	2.53 µM (inactive)	3.17 µM (inactive)	6.17 µM (inactive)	5.32 µM (inactive)		16.4 µM (inactive)	1.46 µM (inactive)	0.22 µM (active)	3.02 µM (inactive)	1.77 µM (inactive)	4.14
CN(/N=C/c1ccccn1)C1=NCCN1	> 100 µM (inactive)	> 100 µM (inactive)		> 100 µM (inactive)	> 100 µM (inactive)	> 100 µM (inactive)	> 100 µM (inactive)	> 100 µM (inactive)	> 100 µM (inactive)	> 100 µM (inactive)	> 100 µM (inactive)	> 100 µM (inactive)	> 100 µM (inactive)	> 100 µM (inactive)	> 100 µM (inactive)	> 100 µM (inactive)	> 100 µM (inactive)		> 100
COc1ccc(-c2cc(C3CC3)nc(SCC(=O)O)c2C#N)cc1	56.2 µM (inactive)	> 100 µM (inactive)	> 100 µM (inactive)	44 µM (inactive)	> 100 µM (inactive)	> 100 µM (inactive)	> 100 µM (inactive)		> 100 µM (inactive)	84.3 µM (inactive)	> 100 µM (inactive)	> 100 µM (inactive)	57.8 µM (inactive)	> 100 µM (inactive)	> 100 µM (inactive)	> 100 µM (inactive)	> 100 µM (inactive)	> 100 µM (inactive)	65.8
CCOc1ccc(/N=N/C2C(=O)N(C(=O)CC(=O)Nc3ccccc3)N=C2C)cc1 (stereo not given)		75.7 µM (inactive)	> 100 µM (inactive)	34.5 µM (inactive)	35.2 µM (inactive)	> 100 µM (inactive)	30.8 µM (inactive)	> 100 µM (inactive)	18.6 µM (inactive)	16 µM (inactive)	48.5 µM (inactive)	23.1 µM (inactive)	> 100 µM (inactive)	39.5 µM (inactive)	79.4 µM (inactive)	39.8 µM (inactive)	> 100 µM (inactive)	82 µM (inactive)	57.4
CNc1cc(N)ccc1C(=O)N1CCC[C@H]1CO	> 100 µM (inactive)	> 100 µM (inactive)	> 100 µM (inactive)	> 100 µM (inactive)	> 100 µM (inactive)	> 100 µM (inactive)	> 100 µM (inactive)		> 100 µM (inactive)	> 100 µM (inactive)	> 100 µM (inactive)	> 100 µM (inactive)		> 100 µM (inactive)	> 100 µM (inactive)	> 100 µM (inactive)	> 100 µM (inactive)	> 100 µM (inactive)	> 100
CC(=O)Oc1ccc2cc(-c3ccccc3OC(C)=O)c(=O)oc2c1		36.5 µM (inactive)		32.1 µM (inactive)	59.3 µM (inactive)	30.7 µM (inactive)	25.7 µM (inactive)	34.3 µM (inactive)	33.5 µM (inactive)	56.5 µM (inactive)	38.6 µM (inactive)	11.7 µM (inactive)	6.15 µM (inactive)		40.7 µM (inactive)	82.8 µM (inactive)	> 100 µM (inactive)	76 µM (inactive)	33.7
S=C(S)N1CCN(c2cccc(Cl)c2)CC1		> 100 µM (inactive)	> 100 µM (inactive)	> 100 µM (inactive)	> 100 µM (inactive)	> 100 µM (inactive)	34.6 µM (inactive)	> 100 µM (inactive)	75.3 µM (inactive)	> 100 µM (inactive)	39.8 µM (inactive)	69.3 µM (inactive)	34.9 µM (inactive)	> 100 µM (inactive)	> 100 µM (inactive)	68.9 µM (inactive)	85.1 µM (inactive)	> 100 µM (inactive)	> 100
CC(=O)O[C@H]1C[C@@H](O[C@H]2[C@@H](O)C[C@H](O[C@H]3[C@@H](O)C[C@H](O[C@H]4CC[C@@]5(C)[C@H](CC[C@@H]6[C@@H]5C[C@@H](O)[C@]5(C)[C@@H](C7=CC(=O)OC7)CC[C@]65O)C4)O[C@@H]3C)O[C@@H]2C)O[C@H](C)[C@H]1O.CC(=O)O[C@H]1[C@@H](O)C[C@@H](O[C@H]2[C@@H](O)C[C@H](O[C@H]3[C@@H](O)C[C@H](O[C@H]4CC[C@@]5(C)[C@H](CC[C@@H]6[C@@H]5C[C@@H](O)[C@]5(C)[C@@H](C7=CC(=O)OC7)CC[C@]65O)C4)O[C@@H]3C)O[C@@H]2C)O[C@@H]1C	0.0385 µM (active)	0.0238 µM (active)	0.0299 µM (active)	0.0119 µM (active)	0.0315 µM (active)	0.0136 µM (active)	0.0455 µM (active)	0.0236 µM (active)	0.0324 µM (active)	0.0251 µM (active)	0.129 µM (active)	0.0483 µM (active)	0.617 µM (active)	0.0387 µM (active)	0.0386 µM (active)	0.162 µM (active)	0.0541 µM (active)	0.0423 µM (active)	0.0308
O=C(O)c1cc(=O)c2c(OCC(O)COc3cccc4oc(C(=O)O)cc(=O)c34)cccc2o1	> 72.9 µM (inactive)	> 100 µM (inactive)	> 100 µM (inactive)	> 84.3 µM (inactive)	98.2 µM (inactive)	> 100 µM (inactive)	> 100 µM (inactive)	> 75.3 µM (inactive)	> 85.9 µM (inactive)	> 72.4 µM (inactive)	> 100 µM (inactive)	> 61 µM (inactive)	> 71 µM (inactive)	> 68.1 µM (inactive)	> 59 µM (inactive)	> 81.1 µM (inactive)	> 80.4 µM (inactive)	> 100 µM (inactive)	> 100
